Assay results published in patent US20080070267A1, “Modulation Of Neurotransmitter Activity In Neurons” (The Regents of the University of California, priority 2004, published 2008).

What was measured:
[1] = tested on: Ca^2+ spike activity of cultured embryonic spinal neurons; test: Suppression of spike activity in dissociated neuron cultures; type: cell-based, Xenopus; settings: 2 mM Ca^2+ culture medium
[2] = tested on: myoballs expressing glutamate receptors (rGluR2); test: Whole-cell recording of spontaneous synaptic currents from myoballs expressing rGluR2 at neuronal growth cones; type: cell-based, Xenopus; settings: myoballs expressing rGluR2 in contact with growth cones

`CC(=O)OCOC(=O)CN(CC(=O)OCOC(C)=O)c1ccccc1OCCOc1ccccc1N(CC(=O)OCOC(C)=O)CC(=O)OCOC(C)=O` [BAPTA-AM, bis-(o-aminophenoxy)ethane-N,N,N,N-tetraacetic acid acetoxymethyl ester] was tested, and the “spike activity in vitro” value [1] was “suppression of spike activity”.
With `N#Cc1cc2c(cc1[N+](=O)[O-])=NC(=O)C(=O)N=2` [CNQX] the “spontaneous synaptic currents (SSCs), glutamatergic” value [2] was “blocked”.
